≈ marks a conversion by molar mass, not a printed value.
Experiments:
[1] = tested on: P. aeruginosa TISTR 357; assay: Agar well diffusion assay; assay type: cell-based, Pseudomonas aeruginosa
Text: (§1) To identify potential active bacterial isolates, the cross-streak and agar well diffusion method was employed against S. aureus TISTR 517 and E. coli TISTR 887, following the protocol described in a previous study. The production kinetics of antibacterial substances by the active bacterial isolates were investigated. Single colonies were suspended in 0.9% NaCl solution, and the turbidity was adjusted to an optical density (OD) of 0.35 at 625 nm. Two milliliters of the cell suspension were inoculated into 98 mL of LB broth and incubated at 37 °C with shaking at 150 rpm for seven days. At each time interval, bacterial growth was evaluated by measuring the OD at 625 nm using a UV-Vis spectrophotometer (JASCO Corporation, Tokyo, Japan). The cell-free supernatant (CFS) was obtained by centrifuging the culture at 10,000× g at 4 °C for 15 min. Subsequently, 100 µL of the supernatant was loaded into wells on MH agar plates precultured with tested pathogens. Colistin and vancomycin served as positive controls in agar well diffusion assay.

[2] = tested on: E. coli TISTR 887; assay type: cell-based, Escherichia coli; settings: broth microdilution, 37 °C, 24 h, triplicate
Protocol: (§2) A bacterial suspension was prepared by adjusting its turbidity at OD 625 nm to 0.1 and subsequently made a 20-fold dilution using Cation-Adjusted Mueller–Hinton broth (CAHMB) as a diluent. […] The diluted cell suspension (10 µL) was added to each well, and the plates were incubated at 37 °C for 24 h. The CAMHB alone was used as a negative control, while CAMHB containing colistin or vancomycin served as a positive control.

[3] = tested on: K. pneumoniae TISTR 1383; assay type: cell-based, Klebsiella pneumoniae; settings: broth microdilution, 37 °C, 24 h, triplicate
Protocol: as §2

[4] = tested on: E. coli TISTR 887; assay: Agar well diffusion assay; assay type: cell-based, Escherichia coli
Text: as §1

[5] = tested on: MRSA Strain 2468; assay: Agar well diffusion assay; assay type: cell-based, Staphylococcus aureus
Text: as §1

[6] = tested on: S. aureus TISTR 517; assay: Agar well diffusion assay; assay type: cell-based, Staphylococcus aureus
Text: as §1

[7] = tested on: P. aeruginosa TISTR 357; assay type: cell-based, Pseudomonas aeruginosa; settings: broth microdilution, 37 °C, 24 h, triplicate
Protocol: as §2

[8] = tested on: K. pneumoniae TISTR 1383; assay: Agar well diffusion assay; assay type: cell-based, Klebsiella pneumoniae
Text: as §1

[9] = tested on: MRSA Strain 2468; assay: microbe, parasite or virus in culture; assay type: cell-based, Staphylococcus aureus; settings: Staphylococcus aureus, MRSA, 24 h
Protocol: as §2

[10] = tested on: S. aureus TISTR 517; assay: microbe, parasite or virus in culture; assay type: cell-based, Staphylococcus aureus; settings: Staphylococcus aureus, TISTR517, 24 h, read-out: MBC, S. aureus TISTR 517
Protocol: as §2

[11] = agar well diffusion, MH agar, CFS obtained at 24 h of cultivation, 100 µL per well, colistin 25 μg, vancomycin 30 μg, mean ± SD, n = 3

| Compound | Zone of Inhibition, P. aeruginosa TISTR 357 [1, 11] | MIC, E. coli TISTR 887 ([2]; CAMHB) | MBC, E. coli TISTR 887 ([2]; then plated on MH agar) | MIC, K. pneumoniae TISTR 1383 ([3]; CAMHB) | MBC, K. pneumoniae TISTR 1383 ([3]; then plated on MH agar) | Zone of Inhibition, E. coli TISTR 887 [4, 11] | Zone of Inhibition, MRSA Strain 2468 [5, 11] | Zone of Inhibition, S. aureus TISTR 517 [6, 11] | MIC, P. aeruginosa TISTR 357 ([7]; CAMHB) | MBC, P. aeruginosa TISTR 357 ([7]; then plated on MH agar) | Zone of Inhibition, K. pneumoniae TISTR 1383 [8, 11] | zone of inhibition at 30 µg/disc ([1]; Pseudomonas aeruginosa, TISTR357, 24 h, read-out: Zone of Inhibition, P. aeruginosa TISTR 357) | zone of inhibition at 30 µg/disc ([4]; Escherichia coli, TISTR887, 24 h, read-out: Zone of Inhibition, E. coli TISTR 887) | zone of inhibition at 30 µg/disc ([5]; Staphylococcus aureus, MRSA, 24 h, read-out: Zone of Inhibition, MRSA Strain 2468) | zone of inhibition at 30 µg/disc ([6]; Staphylococcus aureus, TISTR517, 24 h, read-out: Zone of Inhibition, S. aureus TISTR 517) | MBC ([9]; read-out: MBC, MRSA strain 2468) | MIC ([9]; read-out: MIC, MRSA strain 2468) | MBC [10] | zone of inhibition at 30 µg/disc ([8]; Klebsiella pneumoniae, TISTR1383, 24 h, read-out: Zone of Inhibition, K. pneumoniae TISTR 1383) |
| --- | --- | --- | --- | --- | --- | --- | --- | --- | --- | --- | --- | --- | --- | --- | --- | --- | --- | --- | --- |
| Colistin [reference compound] | 29.41 ± 0.65 mm | 1 mg/L | 1 mg/L | 1 mg/L | 1 mg/L | 26.52 ± 0.43 mm | 0.00 ± 0.00 mm | 0.00 ± 0.00 mm | 2 mg/L | 2 mg/L | 26.67 ± 0.22 mm | – | – | – | – | – | – | – | – |
| CN[C@H](CC(C)C)C(=O)N[C@H]1C(=O)N[C@@H](CC(N)=O)C(=O)N[C@H]2C(=O)N[C@H]3C(=O)N[C@H](C(=O)N[C@H](C(=O)O)c4cc(O)cc(O)c4-c4cc3ccc4O)[C@H](O)c3ccc(c(Cl)c3)Oc3cc2cc(c3O[C@@H]2O[C@H](CO)[C@@H](O)[C@H](O)[C@H]2O[C@H]2C[C@](C)(N)[C@H](O)[C@H](C)O2)Oc2ccc(cc2Cl)[C@H]1O [Vancomycin] | – | – | – | – | – | – | – | – | – | – | – | 0 mm | 0 mm | 29 ± 0.43 mm | 28.5 ± 0.22 mm | 4 mg/L (≈ 2.76 µM) | 4 mg/L (≈ 2.76 µM) | 2 mg/L (≈ 1.38 µM) | 0 mm |
